Target: T1, Leukotriene A-4 hydrolase (Homo sapiens, UniProt P09960)
T1 sequence (P09960 whole entry): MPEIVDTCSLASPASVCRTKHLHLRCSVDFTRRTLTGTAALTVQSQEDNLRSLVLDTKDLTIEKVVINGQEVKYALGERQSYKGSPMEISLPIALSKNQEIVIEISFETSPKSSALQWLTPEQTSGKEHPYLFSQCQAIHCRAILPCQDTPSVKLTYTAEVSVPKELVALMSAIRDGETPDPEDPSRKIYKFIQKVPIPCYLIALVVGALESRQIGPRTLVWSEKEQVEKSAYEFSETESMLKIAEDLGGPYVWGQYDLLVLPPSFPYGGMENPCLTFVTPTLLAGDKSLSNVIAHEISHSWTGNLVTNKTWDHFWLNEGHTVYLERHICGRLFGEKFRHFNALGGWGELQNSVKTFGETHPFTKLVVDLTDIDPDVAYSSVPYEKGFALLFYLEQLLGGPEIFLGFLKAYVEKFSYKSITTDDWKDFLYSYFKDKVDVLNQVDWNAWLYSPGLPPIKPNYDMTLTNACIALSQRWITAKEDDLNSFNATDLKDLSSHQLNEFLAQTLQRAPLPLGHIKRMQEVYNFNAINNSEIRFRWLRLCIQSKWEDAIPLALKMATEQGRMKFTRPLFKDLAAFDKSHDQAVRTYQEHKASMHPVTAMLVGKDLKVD
Assay: Activation of N-terminal (His)6 and Xpress-tagged LTA4H (unknown origin) expressed in Escherichia coli BL21(DE3) cells assessed as increase in aminopeptidase activity by measuring p-nitroanilide release using L-Alanine-p-nitroanilide incubated for 10 mins by UV plate reader based assay

AC50: 5.92 µM
Structure (SMILES): COc1cccc(Cc2ccc(-c3csc(N)n3)cc2)c1
